Test results published in ChEMBL document CHEMBL1143535 (Bioorg Med Chem Lett, 2005).
Values joined by “and” are separate entries in the source; they are usually repeats but may differ in a detail not shown here. Identical values can stand only once.

Target: T1, Muscarinic acetylcholine receptor M2 (Rattus norvegicus, UniProt P10980)
T1 sequence (P10980 whole entry): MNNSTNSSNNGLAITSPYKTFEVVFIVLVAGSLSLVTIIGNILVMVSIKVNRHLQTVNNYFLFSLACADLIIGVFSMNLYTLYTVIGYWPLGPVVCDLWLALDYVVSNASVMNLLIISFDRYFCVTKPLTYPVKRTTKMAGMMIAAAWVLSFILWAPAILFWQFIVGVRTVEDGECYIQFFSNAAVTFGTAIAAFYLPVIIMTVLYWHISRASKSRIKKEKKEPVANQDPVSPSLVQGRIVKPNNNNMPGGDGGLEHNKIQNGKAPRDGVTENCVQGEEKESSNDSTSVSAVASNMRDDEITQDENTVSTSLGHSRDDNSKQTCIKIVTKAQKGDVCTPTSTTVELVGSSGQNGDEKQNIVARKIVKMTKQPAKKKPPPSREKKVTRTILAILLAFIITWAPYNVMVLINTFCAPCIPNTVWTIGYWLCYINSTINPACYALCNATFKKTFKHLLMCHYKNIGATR
Assay: Affinity for rat Muscarinic acetylcholine receptor M2

## Cc1ccc(OCc2ccccc2)c(C(CCN2C[C@H]3C[C@H]3C2)c2ccccc2)c1 (stereo not given in full)
  Ki: > 10000 nM

## Cc1ccc(O)c(C(CCN2CC3C[C@@H]3C2)c2ccccc2)c1 (single isomer, unassigned)
  Ki: 105 nM

## Cc1ccc(OCc2ccccc2)c(C(CCN2C[C@H]3C[C@H]3C2C)c2ccccc2)c1 (stereo not given in full)
  Ki: > 10000 nM

## Cc1ccc(O)c(C(CCN2C[C@H]3C[C@@]3(C)C2)c2ccccc2)c1 (stereo not given in full)
  Ki: 221 nM

## Cc1ccc(O)c(C(CCN2C[C@H]3C[C@H]3C2C)c2ccccc2)c1 (stereo not given in full)
  Ki: 34 nM and 42 nM

## O=C(NCC#CCN1CC2CC2C1)C(O)(c1ccccc1)C1CCCCC1 (stereo not given)
  Ki: 3580 nM

## Cc1ccc(OCc2ccccc2)c(C(CCN2C[C@@]3(C)C[C@@]3(C)C2)c2ccccc2)c1 (stereo not given in full)
  Ki: > 10000 nM

## Cc1ccc(O)c(C(CCN2C[C@@]3(C)C[C@@]3(C)C2)c2ccccc2)c1 (stereo not given in full)
  Ki: > 1000 nM

## O=C(NCC#CCN1CC2CC2C1)C(O)(c1ccccc1)c1ccccc1 (stereo not given)
  Ki: 639 nM

## O=C(NCC#CCN1CC2CC2C1)C(O)(c1ccc(F)cc1)c1ccc(F)cc1 (stereo not given)
  Ki: 736 nM
